Measurements: ChEMBL document CHEMBL4270599, “Synthesis of a 3'-C-ethynyl-β-d-ribofuranose purine nucleoside library: Discovery of C7-deazapurine analogs as potent antiproliferative nucleosides” (Eur J Med Chem, 2018)
pIC50: −log10 of the molar value.

What was measured:
SR = assay: Cytotoxicity against human SR cells after 48 hrs by SRB assay; type: functional
UACC-257 [1] = assay: Growth inhibition of human UACC257 cells assessed as cell growth at 10^-7 M incubated for 48 hrs by sulforhodamine B assay relative to control; type: functional; settings: UACC-257, 48 h, read-out: Activity
SNB-75 [2] = assay: Growth inhibition of human SNB75 cells assessed as cell growth at 10^-6 M incubated for 48 hrs by sulforhodamine B assay relative to control; type: functional; settings: SNB-75, 48 h, read-out: Activity
MCF7 = assay: Growth inhibition of human MCF7 cells assessed as cell growth at 10^-5 M incubated for 48 hrs by sulforhodamine B assay relative to control; type: functional; settings: MCF7, 48 h, read-out: Activity
SN12C [3] = assay: Growth inhibition of human SN12C cells assessed as cell growth at 10^-5 M incubated for 48 hrs by sulforhodamine B assay relative to control; type: functional; settings: read-out: Activity
PC-3 [4] = assay: Growth inhibition of human PC3 cells assessed as cell growth at 10^-6 M incubated for 48 hrs by sulforhodamine B assay relative to control; type: functional; settings: PC-3, 48 h, read-out: Activity
K562 = assay: Growth inhibition of human K562 cells assessed as cell growth at 10^-4 M incubated for 48 hrs by sulforhodamine B assay relative to control; type: functional; settings: K562, 48 h, read-out: Activity
IGROV-1 = assay: Growth inhibition of human IGROV1 cells assessed as cell growth at 10^-4 M incubated for 48 hrs by sulforhodamine B assay relative to control; type: functional; settings: IGROV-1, 48 h, read-out: Activity
RPMI-8226 = assay: Growth inhibition of human RPMI8226 cells assessed as cell growth at 10^-6 M incubated for 48 hrs by sulforhodamine B assay relative to control; type: functional; settings: RPMI-8226, 48 h, read-out: Activity
HCT-15 = assay: Cytotoxicity against human HCT15 cells after 48 hrs by SRB assay; type: functional; settings: HCT-15, 48 h
PC-3 [5] = assay: Growth inhibition of human PC3 cells assessed as cell growth at 10^-5 M incubated for 48 hrs by sulforhodamine B assay relative to control; type: functional; settings: PC-3, 48 h, read-out: Activity
MOLT-4 = assay: Growth inhibition of human MOLT4 cells assessed as cell growth at 10^-7 M incubated for 48 hrs by sulforhodamine B assay relative to control; type: functional; settings: MOLT-4, 48 h, read-out: Activity
MDA-MB-231 = assay: Cytotoxicity against human MDA-MB-231 cells after 48 hrs by SRB assay; type: functional; settings: MDA-MB-231, 48 h
[6] = Antiproliferative activity against HELF cells after 4 days by Coulter counter method; type: cell-based; settings: Homo sapiens, 96 h
UO-31 = assay: Growth inhibition of human UO31 cells assessed as cell growth at 10^-6 M incubated for 48 hrs by sulforhodamine B assay relative to control; type: functional; settings: UO-31, 48 h, read-out: Activity
SK-MEL-28 = assay: Growth inhibition of human SK-MEL-28 cells assessed as cell growth at 10^-8 M incubated for 48 hrs by sulforhodamine B assay relative to control; type: functional; settings: SK-MEL-28, 48 h, read-out: Activity
SN12C [7] = assay: Growth inhibition of human SN12C cells assessed as cell growth at 10^-6 M incubated for 48 hrs by sulforhodamine B assay relative to control; type: functional; settings: read-out: Activity
SNB-19 = assay: Growth inhibition of human SNB19 cells assessed as cell growth at 10^-7 M incubated for 48 hrs by sulforhodamine B assay relative to control; type: functional; settings: SNB-19, 48 h, read-out: Activity
SN12C [8] = assay: Growth inhibition of human SN12C cells assessed as cell growth at 10^-4 M incubated for 48 hrs by sulforhodamine B assay relative to control; type: functional; settings: read-out: Activity
OVCAR-3 = assay: Growth inhibition of human OVCAR3 cells assessed as cell growth at 10^-7 M incubated for 48 hrs by sulforhodamine B assay relative to control; type: functional; settings: OVCAR-3, 48 h, read-out: Activity
RXF 393 = assay: Growth inhibition of human RXF393 cells assessed as cell growth at 10^-7 M incubated for 48 hrs by sulforhodamine B assay relative to control; type: functional; settings: RXF 393, 48 h, read-out: Activity
MDA-MB-435 = assay: Growth inhibition of human MDA-MB-435 cells assessed as cell growth at 10^-7 M incubated for 48 hrs by sulforhodamine B assay relative to control; type: functional; settings: MDA-MB-435, 48 h, read-out: Activity
TK-10 = assay: Growth inhibition of human TK10 cells assessed as cell growth at 10^-8 M incubated for 48 hrs by sulforhodamine B assay relative to control; type: functional; settings: TK-10, 48 h, read-out: Activity
SF-295 = assay: Growth inhibition of human SF295 cells assessed as cell growth at 10^-8 M incubated for 48 hrs by sulforhodamine B assay relative to control; type: functional; settings: SF-295, 48 h, read-out: Activity
HL-60(TB) = assay: Cytotoxicity against human HL-60(TB) cells after 48 hrs by SRB assay; type: functional; settings: HL-60, 48 h; for CC50: read-out: pLC50 (the source's name) (converted)
SW-620 = assay: Growth inhibition of human SW620 cells assessed as cell growth at 10^-5 M incubated for 48 hrs by sulforhodamine B assay relative to control; type: functional; settings: SW-620, 48 h, read-out: Activity
SK-OV-3 = assay: Cytotoxicity against human SKOV3 cells after 48 hrs by SRB assay; type: functional; settings: SK-OV-3, 48 h
NCI/ADR-RES = assay: Cytotoxicity against human NCI-ADR-RES cells after 48 hrs by SRB assay; type: functional; settings: for CC50: read-out: pLC50 (the source's name) (converted)
SNB-75 [9] = assay: Growth inhibition of human SNB75 cells assessed as cell growth at 10^-7 M incubated for 48 hrs by sulforhodamine B assay relative to control; type: functional; settings: SNB-75, 48 h, read-out: Activity
SK-MEL-2 [10] = assay: Growth inhibition of human SK-MEL-2 cells assessed as cell growth at 10^-8 M incubated for 48 hrs by sulforhodamine B assay relative to control; type: functional; settings: SK-MEL-2, 48 h, read-out: Activity
SK-MEL-2 [11] = assay: Growth inhibition of human SK-MEL-2 cells assessed as cell growth at 10^-7 M incubated for 48 hrs by sulforhodamine B assay relative to control; type: functional; settings: SK-MEL-2, 48 h, read-out: Activity
UACC-257 [12] = assay: Growth inhibition of human UACC257 cells assessed as cell growth at 10^-8 M incubated for 48 hrs by sulforhodamine B assay relative to control; type: functional; settings: UACC-257, 48 h, read-out: Activity
Hs-578T = assay: Growth inhibition of human Hs 578T cells assessed as cell growth at 10^-5 M incubated for 48 hrs by sulforhodamine B assay relative to control; type: functional; settings: read-out: Activity
[13] = read-out: LC50 (the source's name)
[14] = read-out: pLC50 (the source's name) (converted)

C#C[C@@]1(O)[C@@H](CO)O[C@@H](n2cc(I)c3c(N)ncnc32)[C@@H]1O
GI50 (SR; read-out: GI50): 0.182 to 0.378 µM | CC50 (SR; [13]): > 100 µM | TGI (SR; read-out: TGI): 8.15 to 100 µM | growth at 0.1 µM (UACC-257 [1]): 81 to 88% | growth at 1 µM (SNB-75 [2]): 27 to 39% | growth at 10 µM (MCF7): 1 to 5% | growth at 10 µM (SN12C [3]): 5 to 7% | growth at 1 µM (PC-3 [4]): 13 to 14% | growth at 100 µM (K562): 7 to 8% | growth at 100 µM (IGROV-1): 2 to 3% | growth at 1 µM (RPMI-8226): 23 to 27% | GI50 (HCT-15; read-out: GI50): 0.107 to 0.175 µM | CC50 (HCT-15; [13]): > 100 µM | TGI (HCT-15; read-out: TGI): > 100 µM | TGI (HCT-15; read-out: pTGI (converted)): > 100 µM | growth at 10 µM (PC-3 [5]): 2% | growth at 0.1 µM (MOLT-4): 39 to 52% | GI50 (MDA-MB-231; read-out: GI50): 0.168 to 0.204 µM | CC50 (MDA-MB-231; [13]): > 100 µM | TGI (MDA-MB-231; read-out: TGI): > 100 µM | TGI (MDA-MB-231; read-out: pTGI (converted)): > 100 µM | pIC50 [6]: 7.49 | growth at 1 µM (UO-31): 20 to 28% | growth at 0.01 µM (SK-MEL-28): 88 to 97% | growth at 1 µM (SN12C [7]): 16 to 25% | growth at 0.1 µM (SNB-19): 34 to 59% | growth at 100 µM (SN12C [8]): 6% | growth at 0.1 µM (OVCAR-3): 76 to 79% | growth at 0.1 µM (RXF 393): 82 to 90% | growth at 0.1 µM (MDA-MB-435): 66 to 73% | growth at 0.01 µM (TK-10): 85 to 94% | growth at 0.01 µM (SF-295): 90% | GI50 (HL-60(TB); read-out: GI50): 0.0315 to 0.0678 µM | TGI (HL-60(TB); read-out: TGI): 0.2 to 0.343 µM | CC50 (HL-60(TB)): > 100 µM | growth at 10 µM (SW-620): 4% | GI50 (SK-OV-3; read-out: GI50): 0.0194 to 0.0604 µM | CC50 (SK-OV-3; [13]): > 100 µM | TGI (SK-OV-3; read-out: TGI): 0.469 to 1.13 µM | GI50 (NCI/ADR-RES; read-out: GI50): 0.0637 to 0.0839 µM | TGI (NCI/ADR-RES; read-out: TGI): 4.19 to 14.9 µM | CC50 (NCI/ADR-RES): > 100 µM | growth at 0.1 µM (SNB-75 [9]): 81 to 83% | growth at 0.01 µM (SK-MEL-2 [10]): 84 to 101% | growth at 0.1 µM (SK-MEL-2 [11]): 63 to 77% | growth at 0.01 µM (UACC-257 [12]): 89 to 91%

C#C[C@@]1(O)[C@@H](CO)O[C@@H](n2ccc3c(N)ncnc32)[C@@H]1O
TGI (SR; read-out: TGI): > 100 µM | GI50 (SR; read-out: pGI50 (converted)): 0.813 µM | CC50 (SR; [14]): > 100 µM | TGI (SR; read-out: pTGI): > 100 µM | growth at 0.1 µM (UACC-257 [1]): 105% | growth at 1 µM (SNB-75 [2]): 90% | growth at 10 µM (MCF7): -4% | growth at 10 µM (SN12C [3]): -31% | growth at 1 µM (PC-3 [4]): 45% | growth at 100 µM (K562): 2% | growth at 100 µM (IGROV-1): -28% | growth at 10 µM (Hs-578T): 19% | growth at 1 µM (RPMI-8226): 44% | TGI (HCT-15; read-out: TGI): 4.62 µM | GI50 (HCT-15; read-out: pGI50 (converted)): 0.891 µM | CC50 (HCT-15; [14]): > 100 µM | TGI (HCT-15; read-out: pTGI (converted)): 4.57 µM | growth at 10 µM (PC-3 [5]): -37% | growth at 0.1 µM (MOLT-4): 95% | TGI (MDA-MB-231; read-out: TGI): 5.89 µM | GI50 (MDA-MB-231; read-out: pGI50 (converted)): 1.51 µM | CC50 (MDA-MB-231; [14]): 83.2 µM | TGI (MDA-MB-231; read-out: pTGI (converted)): 5.89 µM | growth at 1 µM (UO-31): 69% | growth at 0.01 µM (SK-MEL-28): 93% | growth at 1 µM (SN12C [7]): 45% | growth at 0.1 µM (SNB-19): 98% | growth at 100 µM (SN12C [8]): -64% | growth at 0.1 µM (OVCAR-3): 106% | growth at 0.1 µM (RXF 393): 111% | growth at 0.1 µM (MDA-MB-435): 99% | growth at 0.01 µM (TK-10): 101% | growth at 0.01 µM (SF-295): 89% | TGI (HL-60(TB); read-out: TGI): 5.49 µM | GI50 (HL-60(TB); read-out: pGI50 (converted)): 1.58 µM | CC50 (HL-60(TB)): > 100 µM | TGI (HL-60(TB); read-out: pTGI (converted)): 5.5 µM | growth at 10 µM (SW-620): 5% | TGI (SK-OV-3; read-out: TGI): 5.24 µM | GI50 (SK-OV-3; read-out: pGI50 (converted)): 1.07 µM | CC50 (SK-OV-3; [14]): > 100 µM | TGI (SK-OV-3; read-out: pTGI (converted)): 5.25 µM | TGI (NCI/ADR-RES; read-out: TGI): 7.28 µM | GI50 (NCI/ADR-RES; read-out: pGI50 (converted)): 0.794 µM | CC50 (NCI/ADR-RES): > 100 µM | TGI (NCI/ADR-RES; read-out: pTGI (converted)): 7.24 µM | growth at 0.1 µM (SNB-75 [9]): 95% | growth at 0.01 µM (SK-MEL-2 [10]): 88% | growth at 0.1 µM (SK-MEL-2 [11]): 90% | growth at 0.01 µM (UACC-257 [12]): 100%
